Reference: patent publication US20080206253A1, “Method For Preventing or Treating Pain in a Mammal” (priority 2005, published 2008)
“Also recorded” adds a separate entry of the source. Marks after values point to notes of the source that are not given here.

Key:
[1] = system: rats, formalin-injected hind paw; assay: Formalin-induced flinching (paw formalin test); type: in vivo, rat
Protocol: In recent work it was shown that inhibition of spinal p38 MAP kinase attenuated formalin-induced flinching. Svensson et al., J Neurochem 86: 1534-1544, 2003b. To examine the contribution of p38α and p38β in this experimental model of hyperalgesia, animals were injected with p38α, p38β AS or MS IT for five days. These animals were then examined on the formalin test. Unilateral intraplantar formalin solution (2.5%) caused a biphasic flinching pattern where the first 9 minutes are referred to as phase I and the following 50 minutes (min 10-60) as phase II. Yaksh et al., J Neurosci 21: 5847-5853, 2001a. The phase II flinching is considered to represent afferent input initiated spinal facilitation. Dickenson and Sullivan, Neurosci Lett 83: 207-211, 1987; Puig and Sorkin, Pain 64: 345-355, 1996. […] To further confirm the role of p38 to injury-induced pain behavior, a pharmacological inhibitor was also studied: SB203580, a p38α/β non-selective inhibitor.
To quantify formalin induced flinching, an automated sensing system was employed. Yaksh et al., J Appl Physiol 90: 2386-2402, 2001b. Briefly, a soft metal band was placed on the hind paw of the animal being tested. Animals were allowed to acclimate in individual Plexiglas chambers for 30 min before being moved to a test chamber. Just before the animals were placed into the test chamber, they were briefly restrained in a cloth towel, and 2.5% formalin (50 μl) was injected into the dorsal side of the banded paw. Nociceptive behavior was quantified by automatically counting the incidences of spontaneous flinching or shaking of the injected paw. The flinches were counted for 1-min periods for 60 minutes and the flinch data are expressed as number of flinches per min and total flinches observed during phase I (0-9 min) and phase II (10-60 min).

p38β = assay: Western blot of spinal p38β protein expression after IT antisense; type: in vivo, rat; details: for p38β protein expression, % Expression Compared to Missense: spinal cord at day six, MS=100%, mean ±SEM n=6; for spinal p38β protein expression compared to missense (MS)-treated animals (in words): five days of IT bolus injections, p38β AS 10-20 μg (10 and 20 μg: P<0.05), p38α AS 10-30 μg
Text: It has previously been shown that inhibition of spinal p38 MAP kinase prevents both inflammation-evoked hyperalgesia and nerve injury-induced allodynia. Ji et al., Neuron 36: 57-68, 2002; Schafers et al., J Neurosci 23: 2517-2521, 2003; Svensson et al., Neuroreport 14: 1153-1157, 2003a.; Svensson et al., J Neurochem 86: 1534-1544, 2003b. It still remains to be determined whether only one or both of the p38 isoforms, that are present in the spinal cord, are involved in modulation of spinal nociceptive processing. Since there is no specific p38 isoform inhibitors available, rats were treated intrathecally with isoform specific antisense oligonucleotides (AS) in order to knock down p38α and p38β respectively. […] There were no differences between the AS-, MS- or vehicle-treated groups in terms of weight gain or motor function. The specificity of the effects of these two antisense oligonucleotides was also examined. Western blot membranes were stripped and re-incubated the with the other p38 isoform antibody. […] In Table 1, antisense was given IT once daily for 5 days and protein expression assayed in spinal chord at day six compared to protein level detected in missense treated animals (MS=100%). Each group represents mean ±SEM, n=6 per group. (*) represents P<0.05 as compared to the missense group.
Antisense oligonucleotides. Three oligonucleotides (a kind gift from ISIS Pharmaceuticals Inc.) with lengths of 20 nucleotides were employed in the study: ISIS 101757 (p38α AS) […], beginning at position 1081 in the rat p38α mRNA; ISIS 107211 (p38βAS) […], beginning at position 439 in the rat p38β mRNA; and ISIS141923 (an universe MS control) […]. These oligonucleotides were synthesized as 2′-methoxyethyl (MOE) phosphorothioate chimeric oligonucleotides in which the first and last five bases contained MOE modifications with a uniform phosphorothioate backbone. Butler et al., Diabetes 51: 1028-1034, 2002. The oligonucleotides were dissolved in artificial cerebrospinal fluid (ACSF) immediately prior to intrathecal administration. The ACSF contained (mM) 151.1 Na+, 2.6 K+, 0.9 Mg2+, 1.3 Ca 2+, 122.7 Cl−, 21.0 HCO3, 2.5 HPO4 and was bubbled with 95% O2/5% CO2 before use to adjust the final pH to 7.2. AS and MS (10-30 μg) was administrated in 10 μl ACSF followed by 10 μl saline daily for five days and behavioral experiments and spinal tissue collection performed on day six.
Western blot. Prior to sacrifice, rats were deeply anesthetized and after decapitation the spinal cords were ejected from the vertebral column by a saline-filled syringe. The lumbar part of the spinal cord was immediately homogenized in extraction buffer (50 mM Tris buffer, pH 8.0, containing 0.5% Triton X-100, 150 mM NaCl, 1 mM EDTA, phosphatase and protease inhibitors) by sonication. The tissue extracts were subjected to denaturing NuPAGE 4-12% Bis-Tris gel electrophoresis and then transferred to nitrocellulose membranes (Micronic Separation Inc. Westborough, Mass.). After blocking nonspecific binding sites with 5% low-fat milk in PBS containing 0.1% Tween 20 (PBS-T) for 1 hour in room temperature, the membranes were incubated with antibodies overnight at 4° C. After washing, the antibody-protein complexes were probed with appropriate secondary antibodies labeled with horseradish peroxidase for 1 hr at room temperature and detected with chemiluminescent reagents (SuperSignal, Pierce, Rockford, Ill.). […]

Substance | total number of flinches during phase I or II ([1]; IT oligonucleotide daily for 5 days, 2.5% formalin into paw, compared with IT saline or MS) | p38β protein expression, % Expression Compared to Missense (p38β; IT antisense 30 μg once daily for 5 days) [%] | spinal p38β protein expression compared to missense (MS)-treated animals (in words) (p38β) | number of flinches during phase two ([1]; IT p38β AS (3-20 μg) daily for 5 days, compared to saline and MS treated animals, P<0.05 (10 and 20 μg)) | p38β protein expression, % Expression Compared to Missense (p38β; IT antisense 10 μg once daily for 5 days) | p38β protein expression, % Expression Compared to Missense (p38β; IT antisense 20 μg once daily for 5 days)
p38α AS: 20-nucleotide 2′-MOE phosphorothioate chimeric antisense AGGTGCTCAGGACTCCATTT, beginning at position 1081 in the rat p38α mRNA (all phosphorothioate, sugars by position and methylation of C not given here; 2'-MOE chimeric (gapmer) antisense) | did not differ; also recorded: no statistical difference | 111 ± 15 | neither p38α AS nor p38β AS produced a reduction of the protein expression of the other isoform |  |  | 
p38β AS: 20-nucleotide 2′-MOE phosphorothioate chimeric antisense GTATGTCCTCCTCGCGTGGA, beginning at position 439 in the rat p38β mRNA (all phosphorothioate, sugars by position and methylation of C not given here; 2'-MOE chimeric (gapmer) antisense) |  |  | significant down-regulation; also recorded: knocked down | statistical significant reduction; also recorded: statistically different | 45 ± 9* % | 39 ± 12* %
